Measurements as given in ChEMBL document CHEMBL5303573, “Mapping human microbiome drug metabolism by gut bacteria and their genes” (Nature, 2019).

Assays:
[1] = molecular target: T1, Diguanylate cyclase (Collinsella aerofaciens, UniProt A4EB91); test: (§1) The drug is tested on Collinsella aerofaciens strain: ATCC25986 for biotransformation. The drug concentrations were measured before and after a 12-h incubation by liquid-chromatography-coupled mass spectrometry (LC–MS); type: ADME; parameters: dose 2 uM; conditions: 2 µM
T1 sequence (A4EB91 whole entry): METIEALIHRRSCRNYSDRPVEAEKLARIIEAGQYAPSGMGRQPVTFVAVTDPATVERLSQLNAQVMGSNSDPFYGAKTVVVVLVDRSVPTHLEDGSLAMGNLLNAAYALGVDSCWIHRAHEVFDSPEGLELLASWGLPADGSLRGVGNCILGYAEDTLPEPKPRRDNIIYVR

[2] = molecular target: T2, Flavodoxin (Collinsella aerofaciens, UniProt A4ED08); test: as §1; type: ADME; parameters: dose 2 uM; conditions: 2 µM
T2 sequence (A4ED08 whole entry): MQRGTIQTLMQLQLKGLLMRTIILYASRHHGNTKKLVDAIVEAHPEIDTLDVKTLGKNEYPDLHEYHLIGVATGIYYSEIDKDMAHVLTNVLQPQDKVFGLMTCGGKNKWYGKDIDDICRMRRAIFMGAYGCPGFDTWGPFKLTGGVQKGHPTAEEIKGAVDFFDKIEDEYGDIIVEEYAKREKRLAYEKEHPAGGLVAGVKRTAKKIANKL

[3] = molecular target: T3, GDSL-like protein (Collinsella aerofaciens, UniProt A4E8S4); test: as §1; type: ADME; parameters: dose 2 uM; conditions: 2 µM
T3 sequence (A4E8S4 whole entry): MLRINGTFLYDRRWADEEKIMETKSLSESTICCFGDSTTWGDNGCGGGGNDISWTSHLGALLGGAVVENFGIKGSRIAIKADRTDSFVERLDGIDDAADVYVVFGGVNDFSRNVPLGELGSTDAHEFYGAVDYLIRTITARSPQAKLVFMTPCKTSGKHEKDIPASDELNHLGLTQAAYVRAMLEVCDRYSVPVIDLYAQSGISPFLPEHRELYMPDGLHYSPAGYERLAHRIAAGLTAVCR

[4] = molecular target: T4, Pyridine nucleotide-disulfide oxidoreductase (Collinsella aerofaciens, UniProt A4EBM5); test: as §1; type: ADME; parameters: dose 2 uM; conditions: 2 µM
T4 sequence (A4EBM5 whole entry): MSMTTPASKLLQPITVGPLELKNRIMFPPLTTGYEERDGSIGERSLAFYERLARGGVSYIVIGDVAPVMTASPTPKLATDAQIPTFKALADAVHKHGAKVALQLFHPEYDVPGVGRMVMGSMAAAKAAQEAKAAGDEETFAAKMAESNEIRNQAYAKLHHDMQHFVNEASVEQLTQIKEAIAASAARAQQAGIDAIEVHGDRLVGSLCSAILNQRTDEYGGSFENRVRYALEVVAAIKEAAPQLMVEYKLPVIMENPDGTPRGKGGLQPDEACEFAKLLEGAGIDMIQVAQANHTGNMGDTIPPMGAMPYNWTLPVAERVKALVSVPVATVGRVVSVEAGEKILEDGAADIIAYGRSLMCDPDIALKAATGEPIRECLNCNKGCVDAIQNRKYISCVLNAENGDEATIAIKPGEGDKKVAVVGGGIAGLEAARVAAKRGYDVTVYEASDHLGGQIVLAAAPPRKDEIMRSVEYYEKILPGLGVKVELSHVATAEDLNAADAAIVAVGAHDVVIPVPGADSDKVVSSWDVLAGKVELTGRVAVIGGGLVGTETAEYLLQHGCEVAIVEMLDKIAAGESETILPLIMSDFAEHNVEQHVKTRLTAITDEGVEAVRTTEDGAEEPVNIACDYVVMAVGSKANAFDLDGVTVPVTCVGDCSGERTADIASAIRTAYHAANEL

[5] = molecular target: T5, Acyltransferase 3 domain-containing protein (Phocaeicola dorei, UniProt B6W2J3); test: (§2) The drug is tested on Bacteroides dorei strain: DSM17855 for biotransformation. The drug concentrations were measured before and after a 12-h incubation by liquid-chromatography-coupled mass spectrometry (LC–MS); type: ADME; parameters: dose 2 uM; conditions: 2 µM
T5 sequence (B6W2J3 whole entry): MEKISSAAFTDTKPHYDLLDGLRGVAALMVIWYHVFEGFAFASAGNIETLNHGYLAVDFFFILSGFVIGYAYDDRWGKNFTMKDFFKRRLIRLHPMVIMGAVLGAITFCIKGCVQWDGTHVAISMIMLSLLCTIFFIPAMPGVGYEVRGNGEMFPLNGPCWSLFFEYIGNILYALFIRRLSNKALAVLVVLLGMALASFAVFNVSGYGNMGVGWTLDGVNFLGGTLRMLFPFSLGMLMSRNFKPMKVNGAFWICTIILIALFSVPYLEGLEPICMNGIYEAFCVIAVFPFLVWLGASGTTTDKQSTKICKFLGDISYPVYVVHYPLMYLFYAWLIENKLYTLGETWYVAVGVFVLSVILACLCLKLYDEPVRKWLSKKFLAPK

[6] = molecular target: T6, Esterase (Phocaeicola dorei, UniProt B6W2J6); test: as §2; type: ADME; parameters: dose 2 uM; conditions: 2 µM
T6 sequence (B6W2J6 whole entry): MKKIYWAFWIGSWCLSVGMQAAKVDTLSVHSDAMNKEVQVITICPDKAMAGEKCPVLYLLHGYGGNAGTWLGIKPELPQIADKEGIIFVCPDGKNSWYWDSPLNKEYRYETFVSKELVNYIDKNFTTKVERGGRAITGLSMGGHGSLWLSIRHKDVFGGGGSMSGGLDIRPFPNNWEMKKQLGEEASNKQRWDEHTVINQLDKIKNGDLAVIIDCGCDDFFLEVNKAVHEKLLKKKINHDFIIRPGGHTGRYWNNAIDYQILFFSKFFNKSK

[7] = molecular target: T7, Nitroreductase domain-containing protein (Phocaeicola dorei, UniProt B6VU18); test: as §2; type: ADME; parameters: dose 2 uM; conditions: 2 µM
T7 sequence (B6VU18 whole entry): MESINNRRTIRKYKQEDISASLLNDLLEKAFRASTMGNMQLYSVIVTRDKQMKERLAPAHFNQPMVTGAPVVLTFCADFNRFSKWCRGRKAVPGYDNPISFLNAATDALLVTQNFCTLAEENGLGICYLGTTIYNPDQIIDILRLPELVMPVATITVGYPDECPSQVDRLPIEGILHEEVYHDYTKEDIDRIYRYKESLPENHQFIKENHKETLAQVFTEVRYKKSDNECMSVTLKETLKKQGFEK

[8] = molecular target: T8, Steroid 5-alpha reductase C-terminal domain-containing protein (Phocaeicola dorei, UniProt B6W0N3); test: as §2; type: ADME; parameters: dose 2 uM; conditions: 2 µM
T8 sequence (B6W0N3 whole entry): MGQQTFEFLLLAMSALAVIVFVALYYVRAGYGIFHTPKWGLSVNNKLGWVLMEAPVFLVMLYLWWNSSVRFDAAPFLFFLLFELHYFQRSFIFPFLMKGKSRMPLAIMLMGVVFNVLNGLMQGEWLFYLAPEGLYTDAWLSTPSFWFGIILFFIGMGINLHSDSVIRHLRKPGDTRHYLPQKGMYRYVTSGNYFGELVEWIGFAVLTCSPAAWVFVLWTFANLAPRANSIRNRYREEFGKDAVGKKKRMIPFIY

[9] = The drug is tested on Clostridium spiroforme strain: DSM1552 for biotransformation. The drug concentrations were measured before and after a 12-h incubation by liquid-chromatography-coupled mass spectrometry (LC–MS); conditions: thomasclavelia spiroformis, 2 µM
[10] = The drug is tested on Eubacterium biforme strain: DSM3989 for biotransformation. The drug concentrations were measured before and after a 12-h incubation by liquid-chromatography-coupled mass spectrometry (LC–MS); conditions: holdemanella biformis, 2 µM

Compound | Bacterial Biotransformation [1] | Bacterial Biotransformation [2] | Bacterial Biotransformation [3] | Bacterial Biotransformation [4] | Bacterial Biotransformation [5] | Bacterial Biotransformation [6] | Bacterial Biotransformation [7] | Bacterial Biotransformation [8] | Bacterial Biotransformation [9] | Bacterial Biotransformation [10]
CC(=O)OCC(=O)[C@@]1(OC(C)=O)[C@@H](C)C[C@H]2[C@@H]3C[C@H](F)C4=CC(=O)C=C[C@]4(C)[C@@]3(F)[C@@H](O)C[C@@]21C [DIFLORASONE DIACETATE] | Compound NOT metabolized | Compound NOT metabolized | Compound metabolized | Compound NOT metabolized | Compound NOT metabolized | Compound NOT metabolized | Compound NOT metabolized | Compound NOT metabolized | – | –
C#C[C@]1(O)CC[C@H]2[C@@H]3CCC4=CC(=O)CC[C@@H]4[C@H]3CC[C@@]21CC [LEVONORGESTREL] | Compound NOT metabolized | Compound NOT metabolized | Compound NOT metabolized | Compound NOT metabolized | Compound NOT metabolized | Compound NOT metabolized | Compound NOT metabolized | Compound metabolized | – | –
COc1ccc([C@@H]2Sc3ccccc3N(CCN(C)C)C(=O)[C@@H]2OC(C)=O)cc1 [DILTIAZEM] | Compound NOT metabolized | Compound NOT metabolized | Compound NOT metabolized | Compound NOT metabolized | Compound NOT metabolized | Compound NOT metabolized | Compound NOT metabolized | Compound NOT metabolized | – | –
O=C(CCCN1CCC(O)(c2ccc(Cl)cc2)CC1)c1ccc(F)cc1 [HALOPERIDOL] | – | – | – | – | – | – | – | – | Compound NOT metabolized | Compound NOT metabolized
C#C[C@]1(OC(C)=O)CC[C@H]2[C@@H]3CCC4=C/C(=N/O)CC[C@@H]4[C@H]3CC[C@@]21CC [NORGESTIMATE] | – | – | – | – | – | – | – | – | Compound NOT metabolized | Compound metabolized
Cc1ccc(NC(=O)c2ccc(CN3CCN(C)CC3)cc2)cc1Nc1nccc(-c2cccnc2)n1 [IMATINIB] | – | – | – | – | – | – | – | – | Compound NOT metabolized | Compound NOT metabolized
COc1ccc2cc([C@H](C)C(=O)O)ccc2c1 [NAPROXEN] | – | – | – | – | – | – | – | – | Compound NOT metabolized | –
CNCC[C@H](Oc1cccc2ccccc12)c1cccs1 [DULOXETINE] | – | – | – | – | – | – | – | – | Compound NOT metabolized | Compound NOT metabolized
CC(C)(C(=O)O)c1ccc(C(O)CCCN2CCC(C(O)(c3ccccc3)c3ccccc3)CC2)cc1 (stereo unspecified) [FEXOFENADINE] | – | – | – | – | – | – | – | – | – | Compound NOT metabolized
CC1Cc2ccccc2N1NC(=O)c1ccc(Cl)c(S(N)(=O)=O)c1 (stereo unspecified) [INDAPAMIDE] | – | – | – | – | – | – | – | – | Compound NOT metabolized | –
N#Cc1ccc2c(c1)N(CCCN1CCC(O)CC1)c1ccccc1S2 [PERICIAZINE] | Compound NOT metabolized | Compound NOT metabolized | Compound NOT metabolized | Compound NOT metabolized | Compound metabolized | Compound NOT metabolized | Compound NOT metabolized | Compound NOT metabolized | – | –
CC(=O)OCC(CCn1cnc2cnc(N)nc21)COC(C)=O [FAMCICLOVIR] | Compound NOT metabolized | Compound NOT metabolized | Compound metabolized | Compound NOT metabolized | Compound NOT metabolized | Compound metabolized | Compound NOT metabolized | Compound NOT metabolized | – | –
COC(=O)Nc1nc2ccc(C(=O)c3ccccc3)cc2[nH]1 [MEBENDAZOLE] | – | – | – | – | – | – | – | – | Compound NOT metabolized | Compound NOT metabolized
C#C[C@]1(OC(C)=O)CC[C@H]2[C@@H]3CCC4=CC(=O)CC[C@@H]4[C@H]3CC[C@@]21C [NORETHINDRONE ACETATE] | Compound NOT metabolized | Compound NOT metabolized | Compound NOT metabolized | Compound NOT metabolized | Compound NOT metabolized | Compound NOT metabolized | Compound NOT metabolized | Compound metabolized | – | –
